# US20220175699A1, “CO[…]-CLEAVABLE A[…] AND […]” (Ensysce Biosciences, Inc., priority 2019, published 2022)
# Like-named read-outs stand apart in the source and are kept apart here.
# How the values were obtained:
# [1] = Plasma amphetamine following PO Compound AM-9 0.6 mg/kg to rats without and with trypsin inhibitor nafamostat (Example 8); assay type: in vivo
# Procedure: This example provides a comparison of the immediate release of amphetamine into plasma when Compound AM-9 at a dosage of 0.6 mg/kg is administered PO to fasted rats alone, or with 0.1 and 0.25 mg/kg trypsin inhibitor Nafamostat.
# (§1) The formulation was a clear solution. Animals were either fasted overnight through 4 hours postdose or fed ad lib prior to dosing, 4 animals per groups. […] The liquid formulation was administered via oral gavage at […].
# FIG. 8A depicts the mean plasma concentration of amphetamine over 8 hours after administration of Compound AM-9 at doses of 0.6 mg/kg alone and in combination with 0.1 mg/kg of Nafamostat and 0.25 mg/kg of Nafamostat. FIG. 8B depicts the mean plasma concentration of amphetamine over the first 2 hours after administration of Compound AM-9 at doses of 0.6 mg/kg alone and in combination with 0.1 mg/kg of Nafamostat and 0.25 mg/kg of Nafamostat.
# [2] = Plasma amphetamine following PO Compound AM-9 6 mg/kg to rats without and with trypsin inhibitor nafamostat (Example 9); assay type: in vivo; conditions: fasted rats, PO Compound AM-9 6 mg/kg with 1, 2.5, 5 and 10 mg/kg Nafamostat vs alone
# Procedure: This example provides a comparison of the immediate release of amphetamine into plasma when Compound AM-9 at a dosage of 6 mg/kg is administered PO to fasted rats alone, or with 1, 2.5, 5 and 10 mg/kg trypsin inhibitor Nafamostat.
# as §1
# [3] = rats, fasted, PO 27.7 mg/kg Compound AM-9
# Procedure: Animals were fasted overnight through 4 hours postdose prior to dosing, 4 animals per groups. Individual doses of AM-9 was calculated based on body weights taken on the day of dosing. […] Prior to withdrawing the gavage tube, the tube was flushed with approximately 2 mL of water.
# Blood was collected from a jugular vein into tubes containing K2EDTA anticoagulant. Blood (approximately 1 mL) was collected from each animal predose and at 0.167, 0.333, 0.5, 0.667, 0.833 1, 2, 4, 5, and 8 hours postdose and processed for plasma. Plasma samples were evaluated for AM-9 and amphetamine by LC-MS-MS Mass spectrometer (API 5000 AB Sciex Instruments).
# [4] = Plasma amphetamine following PO administration of d-amphetamine, Compound AM-9 and Vyvanse to dogs (Example 7); conditions: male Beagle dogs, fasted
# Procedure: (§2) Male Beagle dogs were fasted overnight through 4 hours postdose. Individual doses of amphetamine, AM-9 and Vyvanse were calculated based on body weights taken on the day of each dosing. The liquid formulations were administered via oral gavage, 4 per group. Prior to withdrawing the gavage tube, the tube was flushed with approximately 10 mL of water.
# (§3) Blood (approximately 2 mL) was collected from each animal predose and at 0.167, 0.333, 0.5, 0.75, 1, 2, 3, 4, 6, and 8 hours postdose and processed for plasma. Plasma samples were evaluated for amphetamine by LC-MS-MS Mass spectrometer (API 5000 AB Sciex Instruments).
# [5] = male Beagle dogs, fasted, PO Compound AM-9
# Procedure: as §2, with “of” for “of amphetamine,”, “AM-9” for “AM-9 and Vyvanse”
# Blood (approximately 2 mL) was collected from each animal predose and at 0.167, 0.333, 0.5, 0.75, 1, 2, 3, 4, 6, and 8 hours postdose and processed for plasma. Plasma samples were evaluated for AM-9 and amphetamine by LC-MS-MS Mass spectrometer (API 5000 AB Sciex Instruments).
# [6] = rats, fasted, IV 10 mg/kg Compound AM-9; 2, 15 and 60 min postdose
# Procedure: The formulation was a clear solution. Animals were fasted overnight through 4 hours postdose prior to dosing, 4 animals per groups. Individual doses of AM-9 was calculated based on body weights taken on the day of dosing.
# Blood was collected from a jugular vein into tubes containing K2EDTA anticoagulant. Blood (approximately 1 mL) was collected from each animal predose and at 2, 15 and 60 min postdose and processed for plasma. CSF was obtained at these same time periods. Plasma and CSF samples were evaluated for AM-9 by LC-MS-MS Mass spectrometer (API 5000 AB Sciex Instruments).
# [7] = male Beagle dogs, fasted, PO 0.4 mg/kg
# Procedure: as §2, with “all amphetamine and” for “amphetamine,”, “(0.4 mg/kg)” for “and Vyvanse”
# as §3
# [8] = rats, fasted, IV 5 mg/kg Compound AM-9
# Procedure: Animals were fasted overnight through 4 hours postdose prior to dosing, 4 animals per groups. Individual doses of AM-9 was calculated based on body weights taken on the day of dosing.
# Blood was collected from a jugular vein into tubes containing K2EDTA anticoagulant. Blood (approximately 1 mL) was collected from each animal predose and at 0.167, 0.333, 0.5, 0.667, 0.833 1, 2, 4, and 7 hours postdose and processed for plasma. Plasma samples were evaluated for either AM-9 or amphetamine by LC-MS-MS Mass spectrometer (API 5000 AB Sciex Instruments).
# [9] = fasted rats, PO Compound AM-9 0.6 mg/kg with 0.1 and 0.25 mg/kg Nafamostat vs alone
smiles,measurement,setting,value
"N=C(N)c1ccc2cc(OC(=O)c3ccc(N=C(N)N)cc3)ccc2c1 [Nafamostat, 6-carbamimidoylnaphthalen-2-yl 4-(diaminomethyleneamino)benzoate]",effect on Cmax of amphetamine release from AM-9,[1]; [9],reduces the Cmax
same,effect on Tmax of amphetamine release from AM-9,[1]; [9],increases the Tmax
same,effect on release of amphetamine from Compound AM-9 from oral administration,"[1]; rats, PO Compound AM-9 0.6 mg/kg alone and with 0.1 or 0.25 mg/kg Nafamostat, FIGS. 8A-8B",reduces the release of amphetamine
same,effect on Cmax of amphetamine release from AM-9,[2],reduces the Cmax
same,effect on Tmax of amphetamine release from AM-9,[2],increases the Tmax
"CC(=O)NCC(=O)N[C@@H](CCCNC(=N)N)C(=O)N[C@@H](C)Cc1ccccc1 [Compound AM-9, Amphetamine-arginine-glycine-acetate]",conversion of administered AM-9 to amphetamine,[3],majority of the administered AM-9 is immediately converted to amphetamine
same,peak plasma concentration (Cmax) of AM-9 relative to peak plasma concentration of amphetamine,[3],approximately half
same,Tmax for peak plasma concentration of amphetamine compared with direct administration of amphetamine,[4],the same as that from direct administration of amphetamine
same,conversion of administered AM-9 to amphetamine,[5],majority of the administered AM-9 is immediately converted to amphetamine
same,peak plasma concentration of AM-9 relative to that of amphetamine,[5],less than half
same,AM-9 crossing from plasma into the CSF,[6],very little AM-9 that crosses from plasma into the CSF
same,amphetamine Tmax (time to maximum plasma concentration) compared with administration of amphetamine,[7],the same Tmax
same,conversion of AM-9 to amphetamine in the blood,[8],very little conversion of AM-9 to amphetamine in the blood
"CS(=O)(=O)O.CS(=O)(=O)O.C[C@@H](Cc1ccccc1)NC(=O)[C@@H](N)CCCCN [Vyvanse, reference compound]",Tmax for peak plasma amphetamine concentration,[4],2 h
